For one assay, the system named is BaF-FLT3-ITD. The experiment in a line: Cell viability assay (Cell Titer-Glo), BaF3 cells expressing FLT3. It counts as cell-based. The note with it: Mus musculus. Background: ATP-based viability assays read luminescence as a measure of living cells.
Another assay has as its system BaF-FLT3(WT). The assay is described as above. It counts as cell-based. The note with it: Mus musculus.
The next assay concerns BaF-FLT3(D835Y). The assay is described as above. It counts as cell-based. The note with it: Mus musculus.
A further assay has as its system MV4-11 xenograft models. The assay can be described thus: Disseminated MV4-11 xenograft survival study. The note with it: MV4-11, NCG mice, vehicle=29.5. It counts as in vivo. The procedure:
LEED models oral administration of AZA, while HELD models intravenous or subcutaneous administration of AZA.
On each day of dosing, an appropriate amount of gilteritinib was dissolved in 0.5% methylcellulose in DI water to yield a dosing solution at 0.4 mg/mL. Each week, an appropriate amount of venetoclax was dissolved in 10% ethanol:30% PEG400:60% phosal 50 propylene glycol to yield a dosing solution at 10 mg/mL. […] Each test mouse received 5×10^6 MOLM-13 cells or 10^7 MV4-11 cells (0.2 mL cell suspension) by tail vein injection. Dosing was initiated three days after tumor cell inoculation, which was designated as Day 1 of the study. […] […] Vehicle was administered both IP and PO. The dosing volume for all treatments was 10 mL/kg, scaled to the weight of each individual animal.
Animals were monitored individually for an endpoint of moribundity due to progression of the leukemia. Full hind limb paralysis, severe ocular proptosis, or moribundity was considered sufficient for euthanasia due to tumor progression. Moribund animals were defined as sick animals unable to reach food and water. These deaths were classified as death on survival study. The time to endpoint (TTE), in days, was recorded for each mouse that died of its disease or was euthanized due to extensive tumor progression. […] An animal classified as having died from treatment-related (TR) causes was assigned a TTE value equal to the day of death. An animal classified as having died from non-treatment-related (NTR) causes, or used for sampling before endpoint, was excluded from TTE calculations and all further analyses. The median TTE value was calculated for each group. The median TTE of treated mice was expressed as a percentage of the median TTE of the control mice (% T/C), and the increase in life span (ILS) was calculated as: ILS=% T/C−100%, where T=median TTE treated, and C=median TTE control. Thus, if T=C, ILS=0%.
Animals were weighed daily on Days 1-5, then twice per week until the completion of the study. […] Individual body weight loss was monitored as per protocol and any animal that exceeded the limits for acceptable body weight loss was euthanized. Group mean body weight loss also was monitored as per protocol. Dosing was suspended in any group that exceeded the limits for acceptable mean body weight loss. If mean body weight recovered, then dosing may be resumed in that group, but at a lower dosage or less frequent dosing schedule. […] Survival was analyzed by the Kaplan-Meier method, based on TTE values. The logrank (Mantel-Cox) and Gehan-Breslow-Wilcoxon tests determined the significance of the difference between the overall survival experiences (survival curves) of two groups, based on TTE values.

Assay [1] relates to stearoyl-CoA desaturase (SCD). The assay can be described thus: SCD expression (RNAseq, real-time PCR) in MV4-11 cells. It counts as cell-based. The procedure:
After treatment, cells were recovered, washed once in PBS, and flash frozen as cell pellets. Cell pellets were sent to Canopy Biosciences for RNA extraction and library preparation and sequencing. RNA was extracted using the Qiagen RNeasy Mini Kit according to manufacturer's instructions. A modified protocol was used to preserve miRNA species. Total RNA Seq libraries were prepared using 200 ng of total RNA and the NEBNext Ultra II Directional Library prep kit. rRNA depletion was performed using an RNase-H based method (New England Biolabs, Ipswich, MA). MCL1 RNA levels in other cell lines were quantified by RNASeq using standard methods.
Libraries were multiplexed and sequenced using Illumina HiSeq. All gene counts were then imported into the R/Bioconductor package EdgeR and TMM normalization size factors were calculated to adjust for samples for differences in library size. Ribosomal genes and genes not expressed in the smallest group size minus one samples greater than one count-per-million were excluded from further analysis. Differential expression analysis was then performed to analyze for differences between conditions and the results were filtered for only those genes with Benjamini-Hochberg false-discovery rate adjusted p-values less than or equal to 0.05. Global perturbations in known Gene Ontology (GO) terms and KEGG pathways were detected using the R/Bioconductor package GAGE to test for changes in expression of the reported log 2 fold-changes reported by Limma in each term versus the background log 2 fold-changes of all genes found outside the respective term. […]
At this time, cells were recovered and RNA was extracted using Qiagen RNeasy kit according to manufacturer's instructions. […] Validated Taqman probes and Taqman Fast Advanced Master Mix was used with Viia 7 Real-Time PCR System (Invitrogen/ThermoFisher Scientific, Waltham, MA) to quantify transcripts of ATF3, SCD, and 18S mRNA.
(In general: Real-time PCR tracks product formation cycle by cycle.)

Consider one molecule from patent US12447171B2 (CELGENE QUANTICEL RESEARCH, INC., priority 2019, dated 2025).

A word on the EC50: it is the midpoint of the concentration-response curve. Lower therefore signals greater potency. For the molecule `Nc1ncn([C@@H]2O[C@H](CO)[C@@H](O)[C@H]2O)c(=O)n1` [5-azacytidine, 4-amino-1-B-D-ribofuranosyl-1,3,5-triazin-2(1H)-one], the EC50 was 598 nM in the assay with BaF-FLT3-ITD, 189 nM with BaF-FLT3(WT) and 456 nM in the assay with BaF-FLT3(D835Y). The Median survival in the assay on MV4-11 xenograft models (HELD 5-azacytidine 3 mg/kg qd×5, alone or with venetoclax or midostaurin 100 mg/kg qd×21) was determined as 35; in the assay with MV4-11 xenograft models (LEED 5-azacytidine 1 mg/kg qd×5×3, alone or with venetoclax or midostaurin 100 mg/kg qd×21), 35. Further, the “SCD expression (real-time PCR)” value was “decreased rapidly within 24 hours” in assay [1] (MV4-11, 3 μM 5-azacytidine) and “not affected” in assay [1] (MV4-11, low concentrations of 5-azacytidine, 24 hours). In assay [1] (RNAseq, MV4-11, 1 μM, 48 hours), this molecule came in with an SCD expression decrease of 2.5 fold.
